The text below walks through data of US12377056B2, “Cladribine regimen for treating multiple sclerosis” (priority 2006, dated 2025).

Data set [1] concerns patients with remitting-relapsing multiple sclerosis. The following applies: oral, 6 monthly courses of 5 days, total dose about 4-5.7 mg/kg; compared with i.v. infusion study (Sipe et al., 1994); cited from earlier work.
Data set [2] relates to patients with relapsing form of clinically definite MS who relapsed while taking Rebif®. As to the kind of experiment: Example 2: oral Cladribine added to Rebif in MS patients with a relapse while taking Rebif (MRI brain lesions, safety). The data set is classed as in vivo, human.
The test system of data set [3] is patients with relapsing forms of clinically definite multiple sclerosis. As to the kind of experiment: Example 1: oral Cladribine in patients with relapsing forms of MS (MRI brain lesions, safety). The data set is classed as in vivo, human. The following applies: for brain lesions (MRI): then maintenance.
Excerpt: Each patient is first examined for normal hepatic, renal, and bone marrow functioning to establish baseline values. Patients are selected from Male or Female, between 18 and 55 years of age who had one or more relapses within the prior 12 months. Female patients are non-pregnant female. […] Patients are monitored to determine whether there is any progression or improvement of brain lesions associated with progression of MS through MRI scans and neurological examination as described in Miller et al., 1996, above; Evans et al., 1997, above; Sipe et al., 1984, above; and Mattson, 2002, above. All patients have a baseline and MRI study (brain or spinal cord, according to localization of the lesions) at month 12. The patient's disability progression and the time for having a first relapse are monitored as well as the proportion of relapse-free patients at 24 months. Lymphocyte markers and monocyte counts are monitored in the patients.
Data set [4] relates to patients with Chronic Progressive MS and Relapsing-Remitting MS. The following applies: cited from earlier work.
Data set [5] has as its system patients with primary progressive (PP) or secondary progressive (SP) multiple sclerosis. The following applies: Phase III; 0.07 mg/kg/day s.c., repeated for 2 or 6 months; cited from earlier work.
The mark [6] stands for this setting: oral 2-CdA induction and maintenance treatments combined with Rebif 44 mcg s.c. TIW, 96 weeks.
[7] abbreviates: oral 2-CdA cyclodextrin tablets, induction treatment followed by maintenance treatments.

Regarding `Nc1nc(Cl)nc2c1ncn2[C@H]1C[C@H](O)[C@@H](CO)O1` [Cladribine, 2-chloro-2′deoxyadenosine], the side effects entry in data set [1] is given as “less severe”. The “brain lesions (MRI)” value in data set [2] (Group 2: low dose cladribine (1.75 mg/kg induction + 1.75 mg/kg maintenance) added to Rebif 44 mcg s.c. TIW), in data set [2] (Group 3: high dose cladribine (3.5 mg/kg induction + 1.75 mg/kg maintenance) added to Rebif 44 mcg s.c. TIW), in data set [3] (Group 2: oral 2-CdA total dose 1.75 mg/kg over 2 months induction) and in data set [3] (Group 3: oral 2-CdA total dose 3.5 mg/kg over 4 months induction) was “decrease in brain lesions” each time. Also, the adverse effects entry in data set [2] (setting [6]) and in data set [3] (setting [7]) was “no severe adverse effect is observed” each time. The “effect of the regimen on brain lesions” value in data set [2] (setting [6]) and in data set [3] (setting [7]) was “efficient in decreasing brain lesions” each time. In data set [4] (Phase II, 0.1 mg/kg/day 7 days i.v. x 4 months or 0.07 mg/kg/day 5 days s.c. x 6 months), the “EDSS, SNRS scores and MRI findings” value was “positive effects”. The “adverse effects (AEs)” value in data set [4] (observed with the highest doses (Selby et al., 1998; Beutler et al., 1994)) is reported as “increased incidence of infections related to compromised immune function or myelosuppression”. For the same compound, the MRI-measured brain lesions entry in data set [5] is reported as “significant reduction of MRI-measured brain lesions”.
